Literature values in US20100240695A1, “[…] PHARMACEUTICAL COMPOSITIONS” (priority 2006, published 2010).

Conditions: average in a patient population

Cc1ccc(-c2nc3ccc(C)cn3c2CC(=O)N(C)C)cc1 [zolpidem]
plasma level below which residual sedative effects are essentially extinguished: below 20 ng/ml
